Assay results published in patent US6121278A, “Di-n-heterocyclic compounds, methods, and compositions for inhibiting parp activity” (Guilford Pharmaceuticals, Inc., priority 1998, dated 2000).
“Also recorded” adds a separate entry of the source.

What was measured:
endotoxic shock = settings: in vivo; cited from earlier work
tumor cells = settings: cited from earlier work
PARP = settings: cited from earlier work
[1] = system: cell viability, glucose metabolism, and DNA synthesis; settings: cited from earlier work
septic shock mortality = assay: Septic shock assay (LPS plus galactosamine); type: in vivo, C57/BL male mice; settings: 60, 20, 6 and 2 mg/kg daily IP for three days; LPS plus galactosamine challenge
Protocol: Groups of 10 C57/BL male mice weighing 18 to 20 g were administered a test compound, 1-carboxynaphthalene-1-carboxamide at the doses of 60, 20, 6 and 2 mg/kg, daily, by intraperitoneal (IP) injection for three consecutive days. Each animal was first challenged with lipopolysaccharide (LPS, from E. coli, LD100 of […] IV) plus galactosamine (20 mg/animal IV). The first dose of test compound in a suitable vehicle was given 30 minutes after challenge, and the second and third doses were given 24 hours later on day 2 and day 3 respectively, with only the surviving animals receiving the second or third dose of the test compound. Mortality was recorded every 12 hours after challenge for the three-day testing period. 1-Carboxy-naphthalene-1-carboxamide provided a protection against mortality from septic shock of about 40%.

[2] = dose of acetanilid given to a person; cited from earlier work
[3] = target: T1, purified recombinant human PARP (Homo sapiens, UniProt P09874); assay: PARP enzyme assay, [3H]NAD incorporation; type: biochemical; settings: 25° C., 15 minutes; PARP inhibition; read-out: Approximate IC50's
T1 construct: purchased Trevigen (Gaithersburg, Md.)
T1 sequence (P09874 whole entry): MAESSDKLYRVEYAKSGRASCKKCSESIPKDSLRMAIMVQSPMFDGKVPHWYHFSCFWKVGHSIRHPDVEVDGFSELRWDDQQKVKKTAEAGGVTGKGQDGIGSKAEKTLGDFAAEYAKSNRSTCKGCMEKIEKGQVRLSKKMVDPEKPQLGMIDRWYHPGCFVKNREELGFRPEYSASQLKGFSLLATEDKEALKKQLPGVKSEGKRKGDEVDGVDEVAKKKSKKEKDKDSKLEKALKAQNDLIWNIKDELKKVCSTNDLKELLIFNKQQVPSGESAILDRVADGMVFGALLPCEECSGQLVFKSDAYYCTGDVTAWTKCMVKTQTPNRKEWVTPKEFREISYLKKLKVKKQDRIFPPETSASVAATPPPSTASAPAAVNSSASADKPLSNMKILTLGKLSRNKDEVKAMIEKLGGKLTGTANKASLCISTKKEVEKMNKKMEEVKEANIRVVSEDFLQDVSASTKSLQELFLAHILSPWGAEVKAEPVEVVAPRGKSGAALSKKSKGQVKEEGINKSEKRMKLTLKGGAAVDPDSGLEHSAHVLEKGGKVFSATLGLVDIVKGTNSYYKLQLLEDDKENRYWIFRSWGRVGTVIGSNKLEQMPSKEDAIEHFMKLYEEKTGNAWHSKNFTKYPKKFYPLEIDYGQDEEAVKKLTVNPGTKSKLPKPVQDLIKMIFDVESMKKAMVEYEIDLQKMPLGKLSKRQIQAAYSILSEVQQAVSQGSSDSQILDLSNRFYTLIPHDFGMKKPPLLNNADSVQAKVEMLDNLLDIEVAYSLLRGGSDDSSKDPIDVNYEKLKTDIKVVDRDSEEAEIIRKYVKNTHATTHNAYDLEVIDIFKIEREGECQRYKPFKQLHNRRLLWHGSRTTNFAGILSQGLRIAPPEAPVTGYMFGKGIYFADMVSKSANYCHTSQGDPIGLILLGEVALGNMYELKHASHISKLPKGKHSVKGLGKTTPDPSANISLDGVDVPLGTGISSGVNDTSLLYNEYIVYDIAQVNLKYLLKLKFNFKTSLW
Protocol: The reaction was initiated by incubating the mixture at 25° C. After 15 minutes' incubation, the reaction was terminated by adding 500 microliters of ice cold 20% (w/v) trichloroacetic acid. The precipitate formed was transferred onto a glass fiber filter (Packard Unifilter-GF/B) and washed three times with ethanol. After the filter was dried, the radioactivity was determined by scintillation counting.

[4] = Arterial blood gases, pH and MABP in focal cerebral ischemia rats; type: in vivo, male Long-Evans rats; settings: for MABP Ischemia: during occlusion; for MABP Steady State: just prior to occlusion
Protocol: (§1) Focal cerebral ischemia was produced by cauterization of the right distal MCA (middle cerebral artery) with bilateral temporary common carotid artery occlusion in male Long-Evans rats for 90 minutes. All procedures performed on the animals were approved by the University Institutional Animal Care and Use Committee of the University of Pennsylvania. A total of 42 rats (weights: 230-340 g) obtained from Charles River were used in this study. The animals fasted overnight with free access to water prior to the surgical procedure.
(§2) Two hours prior to MCA occlusion, varying amounts (control, n=14; 5 mg/kg, n=7; 10 mg/kg, n=7; 20 mg/kg, n=7; and 40 mg/kg, n=7) of the compound, 3,4-dihydro-5-[4-(1-piperidinyl)-butoxy]-1(2H)-isoquinolinone ("DPQ") were dissolved in dimethyl sulfoxide (DMSO) using a sonicator. A volume of 1.28 ml/kg of the resulting solution was injected intraperitoneally into fourteen rats.
(§3) The rats were then anesthetized with halothane (4% for induction and 0.8%-1.2% for the surgical procedure) in a mixture of 70% nitrous oxide and 30% oxygen. The body temperature was monitored by a rectal probe and maintained at 37.5±0.5° C. with a heating blanket regulated by a homeothermic blanket control unit (Harvard Apparatus Limited, Kent, U.K.). A catheter (PE-50) was placed into the tail artery, and arterial pressure was continuously monitored and recorded on a Grass polygraph recorder (Model 7D, Grass Instruments, Quincy, Mass.). Samples for blood gas analysis (arterial pH, PaO2 and PaCO2) were also taken from the tail artery catheter and measured with a blood gas analyzer (ABL 30, Radiometer, Copenhagen, Denmark). Arterial blood samples were obtained 30 minutes after MCA occlusion.
A "steady state" MABP was taken following completion of the surgical reparation, just prior to occlusion; an "ischemia" MABP was taken as the average MABP during occlusion.

focal cerebral ischemia = assay: Focal cerebral ischemia (distal MCA cauterization with bilateral temporary CCA occlusion), infarct; type: in vivo, male Long-Evans rats; settings: for cross-sectional infarct area curve (in words): FIG. 1
Protocol: as §1, §2, §3
The head of the animal was positioned in a stereotaxic frame, and a right parietal incision between the right lateral canthus and the external auditory meatus was made. Using a dental drill constantly cooled with saline, a 3 mm burr hole was prepared over the cortex supplied by the right MCA, 4 mm lateral to the sagittal suture and 5 mm caudal to the coronal suture. The dura mater and a thin inner bone layer were kept, care being taken to position the probe over a tissue area devoid of large blood vessels. The flow probe (tip diameter of 1 mm, fiber separation of 0.25 mm) was lowered to the bottom of the cranial burr hole using a micromanipulator. The probe was held stationary by a probe holder secured to the skull with dental cement. The microvascular blood flow in the right parietal cortex was continuously monitored with a laser Doppler flowmeter (FloLab, Moor, Devon, U.K., and Periflux 4001, Perimed, Stockholm, Sweden).
Focal cerebral ischemia was produced by cauterization of the distal portion of the right MCA with bilateral temporary common carotid artery (CCA) occlusion by the procedure of Chen et al., "A Model of Focal Ischemic Stroke in the Rat: Reproducible Extensive Cortical Infarction", Stroke 17:738-43 (1986) and/or Liu et al., "Polyethylene Glycol-conjugated Superoxide Dismutase and Catalase Reduce Ischemic Brain Injury", Am. J. Physiol. 256:H589-93 (1989), both of which are hereby incorporated by reference.
Specifically, bilateral CCA's were isolated, and loops made from polyethylene (PE-10) catheter were carefully passed around the CCA's for later remote occlusion. […]

colitis = settings: rat, in vivo; cited from earlier work
[5] = system: heart ischemia and reperfusion; settings: cited from earlier work
[6] = system: human fibroblast cells (W138 or BJ); assay: Extending proliferative capacity and lifespan of cells; type: cell-based
Protocol: At the time of subdivision, the media is aspirated, and the cells rinsed with phosphate buffer saline (PBS) and then trypsinized. The cells are counted with a Coulter counter and plated at a density of 10^5 cells per cm^2 in 6-well tissue culture plates in DMEM/199 medium supplemented with 10% bovine calf serum and varying amounts (0.10 μM, and 1 mM: from a 100× stock solution in DMEM/M199 medium) of a PARP inhibitor of Formula I as disclosed herein. This process is repeated every 7 days until the cell appear to stop dividing. The untreated (control) cells reach senescence and stop dividing after about 40 days in culture. […] The cells treated with 1 mM 3-AB will still divide after 60 days in culture.

## NC(=O)c1cccnc1 [nicotinamide]
Endotoxic shock
  vascular failure in endotoxic shock (in words): protects against delayed, NO-mediated vascular failure in endotoxic shock

## O=c1[nH]c2ccccc2c2ccccc12 [6(5H)-Phenanthridinone]
Tumor cells
  proliferation of tumor cells (in words): reduced proliferation of tumor cells
Tumor cells; co-treatment with an alkylating drug
  synergy with an alkylating drug (in words): a marked synergistic effect when tumor cells are co-treated with an alkylating drug
PARP
  PARP activity (in words): inhibition of PARP activity

## NC(=O)c1ccccc1 [benzamide]
[1]
  effect on cell viability, glucose metabolism, and DNA synthesis (in words): shown to affect cell viability, glucose metabolism, and DNA synthesis

## 1-carboxynaphthalene-1-carboxamide
Septic shock mortality
  protection against mortality from septic shock: about 40%

## CC(=O)Nc1ccc(O)cc1 [acetaminophen, p-hydroxyacetanilid]
[2]
  plasma component / peak (in words): In the second hour, as the acetanilid level falls, the metabolite acetaminophen concentration reaches a peak

## Nc1ccc2c(c1)oc(=O)c1ccccc12 [PARP Inhibitor (line 8)]
[3]
  IC50: ~4 µM

## O=C1NCCc2c(OCCCCN3CCCCC3)cccc21 [DPQ, 3,4-dihydro-5-[4-(1-piperidinyl)-butoxy]-1(2H)-isoquinolinone]
[4]; 5 mg/kg-treated group (n = 7)
  PaCO2: 38.0 ± 2.8 mm Hg
  PaO2: 126 ± 20 mm Hg
  arterial pH: 7.36 ± 0.02
  MABP Steady State: 78 ± 5 mm Hg
[4]; 5 mg/kg-treated group (n = 7), ** p < 0.01 vs steady state
  MABP Ischemia: 91 mm Hg
[4]; 10 mg/kg-treated group (n = 7)
  PaCO2: 39.3 ± 5.2 mm Hg
  PaO2: 125 ± 16 mm Hg
  arterial pH: 7.34 ± 0.03
  MABP Steady State: 80 ± 9 mm Hg
[4]; 10 mg/kg-treated group (n = 7), * p < 0.05 vs steady state
  MABP Ischemia: 90 mm Hg
[4]; 20 mg/kg-treated group (n = 7)
  PaCO2: 41.3 ± 2.8 mm Hg
  PaO2: 122 ± 14 mm Hg
  arterial pH: 7.35 ± 0.23
  MABP Steady State: 79 ± 10 mm Hg
[4]; 20 mg/kg-treated group (n = 7), ** p < 0.01 vs steady state
  MABP Ischemia: 91 mm Hg
[4]; 40 mg/kg-treated group (n = 7)
  PaCO2: 39.5 ± 4.7 mm Hg
  PaO2: 137 ± 17 mm Hg
  arterial pH: 7.33 ± 0.24
  MABP Steady State: 78 ± 4 mm Hg
[4]; 40 mg/kg-treated group (n = 7), * p < 0.05 vs steady state
  MABP Ischemia: 88 mm Hg
Focal cerebral ischemia; 5 mg/kg i.p.
  cross-sectional infarct area curve (in words): fell approximately halfway between the control and the 10 mg/kg curves
Focal cerebral ischemia; 20 mg/kg i.p.
  cross-sectional infarct area curve (in words): fell approximately halfway between the control and the 10 mg/kg curves
Focal cerebral ischemia; 40 mg/kg i.p.
  infarct volume versus control (in words): no significant difference between the control and the 40 mg/kg-treated group; also recorded: less neuroprotective
  cross-sectional infarct area curve (in words): close to the control
Focal cerebral ischemia; overall, in vivo administration
  reduction in infarct volume overall (in words): substantial reduction in infarct volume

## NC(=O)c1cccc(N)c1 [3-aminobenzamide]
[1]
  effect on cell viability, glucose metabolism, and DNA synthesis (in words): shown to affect cell viability, glucose metabolism, and DNA synthesis
colitis
  colitis outcome (in words): reduced the inflammatory response and restored the morphology and the energetic status of the distal colon
[5]; 10 mg/kg single injection, one minute before occlusion or reperfusion
  reduction in infarct size in the heart: 32-42%
[6]; 10 μM
  effect on lifespan of cells (in words): little or no effect
[6]; 100 μM
  effect on lifespan of cells (in words): appears lengthen the lifespan of the cells
[6]; 1 mM
  effect on lifespan and proliferative capacity of cells (in words): dramatically increases the lifespan and proliferative capacity of the cells
[6]; 1 mM, untreated cells stop after about 40 days
  time in culture after which cells still divide: > 60 days

## Oc1cccc2c(O)nccc12 [1,5-dihydroxyisoquinoline]
[5]; 1 mg/kg single injection
  reduction in infarct size: 38-48%

## CC(=O)Nc1ccccc1 [acetanilid, acetanilide]
[2]
  plasma component / peak (in words): During the first hour, acetanilid is the principal plasma component
